This passage reports EC50 results from patent US20250114338A1, “TETRAHYDRO-PYRIDO[3,4-b]INDOLE ESTROGEN RECEPTOR MODULATORS AND USES THEREOF” (Genentech, Inc., priority 2014, published 2025).

The test system of the first assay is ER-alpha MCF7. Description: ER-alpha MCF7 HCS EC50; stated as measured by in vitro cell proliferation assays of Examples 902 and 903. The class given is cell-based. The following applies: Homo sapiens, MCF7, MCF7 cells; Table 1. In outline:
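MCF7 cells seeded 1000-2000 cells/well for 16 h, then treated with nine-point 1:2 DMSO dilution series in quadruplicate at 37 °C, 5% CO2 for 4 days. Viable cells quantified by CellTiter-Glo ATP luminescence; EC50 calculated. Controls: fulvestrant at final 100 nM, DMSO 0.2% v/v.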
A word on the EC50: it is the concentration giving half of the maximal effect. Consider `C[C@@H]1Cc2c([nH]c3ccccc23)[C@@H](c2ccc(OCCN3CC(CF)C3)nc2)N1CC(C)(C)F` [Example 111, (1R,3R)-2-(2-fluoro-2-methylpropyl)-1-(6-(2-(3-(fluoromethyl)azetidin-1-yl)ethoxy)pyridin-3-yl)-3-methyl-2,3,4,9-tetrahydro-1H-pyrido[3,4-b]indole], for which the concentration giving a half-maximal response (EC50) is 0.898 nM.

Regarding `C[C@@H]1Cc2c([nH]c3ccccc23)[C@@H](c2ncc(OCCN3CC(CF)C3)cc2F)N1CC(C)(C)F` [Example 112, (1S,3R)-2-(2-fluoro-2-methylpropyl)-1-(3-fluoro-5-(2-(3-(fluoromethyl)azetidin-1-yl)ethoxy)pyridin-2-yl)-3-methyl-2,3,4,9-tetrahydro-1H-pyrido[3,4-b]indole], the EC50 came to 0.092 nM.

The same assay, now with this note: Homo sapiens, MCF7, MCF7 cells; Table 2.
On to `C[C@@H]1Cc2c([nH]c3ccccc23)[C@@H](c2c(F)cc(OCCN3CC(CF)C3)cc2F)N1CCC(F)(F)F` [Example 361, (1R,3R)-1-[2,6-difluoro-4-[2-[3-(fluoromethyl)azetidin-1-yl]ethoxy]phenyl]-3-methyl-2-(3,3,3-trifluoropropyl)-1,3,4,9-tetrahydropyrido[3,4-b]indole], for which the EC50 stood at 3 nM.

With `C[C@@H]1Cc2c([nH]c3ccccc23)[C@@H](c2c(F)cc(OC3CN(CC4CC4)C3)cc2F)N1CC(C)(C)F` [Example 164, (1R,3R)-1-[4-[1-(cyclopropylmethyl)azetidin-3-yl]oxy-2,6-difluoro-phenyl]-2-(2-fluoro-2-methyl-propyl)-3-methyl-1,3,4,9-tetrahydropyrido[3,4-b]indole], the 50% effective concentration (EC50) was 0.216 nM.

On to `C[C@@H]1Cc2c([nH]c3ccccc23)[C@@H](c2ccc(NC3CN(CCCF)C3)cc2F)N1C[C@@](C)(F)CO` [Example 290, (R)-2-fluoro-3-((1R,3R)-1-(2-fluoro-4-((1-(3-fluoropropyl)azetidin-3-yl)amino)phenyl)-3-methyl-1,3,4,9-tetrahydro-2H-pyrido[3,4-b]indol-2-yl)-2-methylpropan-1-ol], for which the concentration for a half-maximal effect (EC50) was 0.497 nM.

`CC(=O)CN1[C@@H](c2c(F)cc(OC3CN(CCCF)C3)cc2F)c2[nH]c3ccccc3c2C[C@H]1C` [Example 295, 1-((1S,3R)-1-(2,6-difluoro-4-((1-(3-fluoropropyl)azetidin-3-yl)oxy)phenyl)-3-methyl-1,3,4,9-tetrahydro-2H-pyrido[3,4-b]indol-2-yl)propan-2-one]: the EC50 worked out at 21 nM.

For the compound `C[C@@H]1Cc2c([nH]c3ccccc23)[C@@H](c2c(F)cc(OC3CN(CCCF)C3)cc2F)N1C[C@@H](C)O` [Example 264, (R)-1-((1R,3R)-1-(2,6-difluoro-4-((1-(3-fluoropropyl)azetidin-3-yl)oxy)phenyl)-3-methyl-1,3,4,9-tetrahydro-2H-pyrido[3,4-b]indol-2-yl)propan-2-ol], the EC50 was 0.969 nM.

For the compound `C[C@H]1Cc2c([nH]c3ccc(F)cc23)[C@H](c2c(F)cc(OC3CN(CCCF)C3)cc2F)N1C[C@](C)(F)CO` [Example 371, 3-((1S,3S)-1-(2,6-difluoro-4-((1-(3-fluoropropyl)azetidin-3-yl)oxy)phenyl)-6-fluoro-3-methyl-1,3,4,9-tetrahydro-2H-pyrido[3,4-b]indol-2-yl)-2-fluoro-2-methylpropan-1-ol], the concentration giving a half-maximal response (EC50) came out at 9 nM.

Take `C[C@@H]1Cc2c([nH]c3ccccc23)[C@@H](c2c(F)cc(OC3CN(CCCF)C3)cc2F)N1CC1(CF)CC1` [Example 227]: the EC50 is 0.17 nM.

For the compound `CC(C)CN1CC(Oc2cc(F)c([C@@H]3c4[nH]c5ccccc5c4C[C@@H](C)N3CC(C)(C)F)c(F)c2)C1` [Example 169, (1R,3R)-1-[2,6-difluoro-4-(1-isobutylazetidin-3-yl)oxy-phenyl]-2-(2-fluoro-2-methyl-propyl)-3-methyl-1,3,4,9-tetrahydropyrido[3,4-b]indole], the concentration for a half-maximal effect (EC50) was 0.409 nM.

Turning to `C[C@@H]1Cc2c([nH]c3ccccc23)[C@@H](c2ccn(CCCN3CC(CF)C3)c(=O)c2)N1CC(C)(C)F` [Example 345, 4-((1R,3R)-2-(2-fluoro-2-methylpropyl)-3-methyl-2,3,4,9-tetrahydro-1H-pyrido[3,4-b]indol-1-yl)-1-(3-(3-(fluoromethyl)azetidin-1-yl)propyl)pyridin-2(1H)-one], the EC50 stood at 12.3 nM.

`C[C@H](CN1[C@H](c2c(F)cc(NC3CN(CCCF)C3)cc2F)c2[nH]c3ccccc3c2C[C@H]1C)C(=O)O` [Example 354, (2R)-3-[(1R,3R)-1-[2,6-difluoro-4-[[1-(3-fluoropropyl)azetidin-3-yl]amino]phenyl]-3-methyl-1,3,4,9-tetrahydropyrido[3,4-b]indol-2-yl]-2-methyl-propanoic acid]: the half-maximal effective concentration (EC50) turned out to be 1 nM.

For `C[C@@H]1Cc2c([nH]c3ccccc23)[C@@H](c2c(F)cc(OC3CN(CCCF)C3)cc2F)N1C(=O)C1(C)CC1` [Example 226, [(1R,3R)-1-[2,6-difluoro-4-[1-(3-fluoropropyl)azetidin-3-yl]oxy-phenyl]-3-methyl-1,3,4,9-tetrahydropyrido[3,4-b]indol-2-yl]-(1-methylcyclopropyl)methanone], the half-maximal effective concentration (EC50) came to 2 nM.

In the case of `C[C@H]1Cc2c([nH]c3ccc(Cl)cc23)[C@H](c2c(F)cc(OC3CN(CCCF)C3)cc2F)N1CC(C)(C)F` [Example 244, (1S,3S)-6-chloro-1-(2,6-difluoro-4-((1-(3-fluoropropyl)azetidin-3-yl)oxy)phenyl)-2-(2-fluoro-2-methylpropyl)-3-methyl-2,3,4,9-tetrahydro-1H-pyrido[3,4-b]indole], the concentration giving a half-maximal response (EC50) is 63 nM.

Take `C[C@@H]1Cc2c([nH]c3ccccc23)[C@@H](c2c(F)cc(OC3CN(C4CC(F)(F)C4)C3)cc2F)N1CC(C)(C)F` [Example 307, (1R,3R)-1-[4-[1-(3,3-difluorocyclobutyl)azetidin-3-yl]oxy-2,6-difluoro-phenyl]-2-(2-fluoro-2-methyl-propyl)-3-methyl-1,3,4,9-tetrahydropyrido[3,4-b]indole]: the EC50 came out at 0.193 nM.

With `C[C@@H]1Cc2c([nH]c3ccc(F)cc23)[C@@H](c2c(F)cc(NC3CN(CCCF)C3)cc2F)N1S(C)(=O)=O` [Example 387, N-(3,5-difluoro-4-((1R,3R)-6-fluoro-3-methyl-2-(methylsulfonyl)-2,3,4,9-tetrahydro-1H-pyrido[3,4-b]indol-1-yl)phenyl)-1-(3-fluoropropyl)azetidin-3-amine], the EC50 was 0.149 nM.

Turning to `C[C@@H]1Cc2c([nH]c3ccccc23)[C@@H](c2c(F)cc(OCCN3CC(CF)C3)cc2F)N1C(=O)CCC#N` [Example 206, 4-[(1R,3R)-1-[2,6-difluoro-4-[2-[3-(fluoromethyl)azetidin-1-yl]ethoxy]phenyl]-3-methyl-1,3,4,9-tetrahydropyrido[3,4-b]indol-2-yl]-4-oxo-butanenitrile], the EC50 stood at 31 nM.

Turning to `C[C@@H]1Cc2c([nH]c3ccccc23)[C@@H](c2c(F)cc(OC3CN(CCCF)C3)cc2F)N1S(C)(=O)=O` [Example 202, (1R,3R)-1-[2,6-difluoro-4-[1-(3-fluoropropyl)azetidin-3-yl]oxy-phenyl]-3-methyl-2-methylsulfonyl-1,3,4,9-tetrahydropyrido[3,4-b]indole], the 50% effective concentration (EC50) was 0.1 nM.

As to `C#CCN1CC(Oc2cc(F)c([C@@H]3c4[nH]c5ccccc5c4C[C@@H](C)N3CC(C)(C)F)c(F)c2)C1` [Example 167, (1R,3R)-1-[2,6-difluoro-4-(1-prop-2-ynylazetidin-3-yl)oxy-phenyl]-2-(2-fluoro-2-methyl-propyl)-3-methyl-1,3,4,9-tetrahydropyrido[3,4-b]indole], the concentration giving a half-maximal response (EC50) stood at 0.083 nM.

Consider `C[C@@H]1Cc2c([nH]c3ccccc23)[C@@H](c2c(F)cc(OC3CN(CCC4CC4)C3)cc2F)N1CC(C)(C)F` [Example 187, (1R,3R)-1-[4-[1-(2-cyclopropylethyl)azetidin-3-yl]oxy-2,6-difluoro-phenyl]-2-(2-fluoro-2-methyl-propyl)-3-methyl-1,3,4,9-tetrahydropyrido[3,4-b]indole], for which the EC50 worked out at 1 nM.

With `C[C@@H]1Cc2c([nH]c3ccccc23)[C@@H](c2c(F)cc(OC3CN(CCCF)C3)cc2F)N1C[C@@](C)(F)CO` [Example 234, 3-((1R,3R)-1-(2,6-difluoro-4-((1-(3-fluoropropyl)azetidin-3-yl)oxy)phenyl)-3-methyl-1,3,4,9-tetrahydro-2H-pyrido[3,4-b]indol-2-yl)-2-fluoro-2-methylpropan-1-ol], the concentration for a half-maximal effect (EC50) was 0.18 nM.

On to `C[C@@H]1Cc2c([nH]c3ccccc23)[C@@H](c2c(F)cc(OCCN3CC(CF)C3)cc2F)N1C(=O)C1CCC1` [Example 148, cyclobutyl-[(1R,3R)-1-[2,6-difluoro-4-[2-[3-(fluoromethyl)azetidin-1-yl]ethoxy]phenyl]-3-methyl-1,3,4,9-tetrahydropyrido[3,4-b]indol-2-yl]methanone], for which the EC50 was 1.47 nM.

For the compound `C[C@@H]1Cc2c([nH]c3ccccc23)[C@@H](c2ccc(NCCN3CC(CF)C3)cc2)N1CC(C)(C)F` [Example 323, N-[2-[3-(fluoromethyl)azetidin-1-yl]ethyl]-4-[(1R,3R)-2-(2-fluoro-2-methyl-propyl)-3-methyl-1,3,4,9-tetrahydropyrido[3,4-b]indol-1-yl]aniline], the EC50 is 0.215 nM.

For the compound `C[C@@H]1Cc2c([nH]c3ccc(F)cc23)[C@@H](c2c(F)cc(OC3CN(CCCF)C3)cc2F)N1CC(C)(C)F` [Example 242, (1R,3R)-1-(2,6-difluoro-4-((1-(3-fluoropropyl)azetidin-3-yl)oxy)phenyl)-6-fluoro-2-(2-fluoro-2-methylpropyl)-3-methyl-2,3,4,9-tetrahydro-1H-pyrido[3,4-b]indole], the EC50 is 5.42 nM.

Regarding `C[C@@H]1Cc2c([nH]c3ccccc23)[C@@H](c2c(F)cc(OCCN3CC(CF)C3)cc2F)N1C(=O)CC1CCC1` [Example 158, 2-cyclobutyl-1-[(1R,3R)-1-[2,6-difluoro-4-[2-[3-(fluoromethyl)azetidin-1-yl]ethoxy]phenyl]-3-methyl-1,3,4,9-tetrahydropyrido[3,4-b]indol-2-yl]ethanone], the half-maximal effective concentration (EC50) turned out to be 10 nM.
